Laboratory results reported in patent US20120009152A1, “NITRIC OXIDE DONORS FOR TREATMENT OF DISEASE AND INJURY” (priority 2002, published 2012).

What was measured:
[1] = system: rats subjected to embolic MCA occlusion; assay: Infarct volume after embolic MCA occlusion, SNAP study; assay type: in vivo, rat; settings: SNAP 30 μg/kg iv bolus then 300 μg/kg/h for 60 minutes at 24 hours after MCA occlusion; 14 days; vs saline
Experimental: (§1) The question arises as to the specificity of this NO agent for the induction of neurogenesis and functional benefit. Are the effects specific for DETA/NONOate or would other agents that donate NO likewise provide functional benefit? To test this question, rats were treated with another NO donor, S-nitroso-N-acetylpenicillamine (SNAP, Sigma) that is structurally different from DETA/NONOate. Young, male adult Wistar rats were subjected to embolic MCA occlusion (Zhang et al., 1997). SNAP at a dose of 30 μg/kg was intravenously administered to rats as a bolus followed by 300 μg/kg/h infusion for 60 minutes at 24 hours after embolic MCA occlusion. As functional outcome measures, the rotarod test which assesses motor function such as coordination and balance (Zhang et al., 2000), the adhesive removal test which measures forelimb somato-sensorimotor asymmetries (Schallert et al., 2000), and animal body weight were measured prior to treatment and at 2, 4, 7, and 14 days after treatment. Animals were sacrificed at 14 days after stroke and the infarct volume was measured (Zhang, et al., 1997). […] These benefits persisted to the time of sacrifice at 14 days post stroke. […] Thus, the effect of the treatment is one of restorative therapy not neuroprotective therapy. […] Functional improvement in these animals is associated with change and remodeling of brain. […]

[2] = system: rats subjected to embolic MCA occlusion; assay: Rotarod test after embolic MCA occlusion, SNAP study; assay type: in vivo, rat; settings: SNAP at 24 hours after MCA occlusion; by 4 days after stroke, persisted to 14 days
Experimental: as §1

[3] = system: rats subjected to embolic MCA occlusion; assay: Adhesive removal test after embolic MCA occlusion, SNAP study; assay type: in vivo, rat; settings: SNAP at 24 hours after MCA occlusion; by 4 days after stroke, persisted to 14 days
Experimental: as §1

[4] = Animal body weight after embolic MCA occlusion, SNAP study; assay type: in vivo, rat; settings: SNAP at 24 hours after MCA occlusion; 7 days after stroke; vs saline
Experimental: as §1

[5] = system: Mouse brain-derived endothelial cells; assay: Capillary-like tube formation assay; assay type: cell-based
Experimental: An in vitro angiogenesis assay was performed. Briefly, 0.8 ml of growth factor reduced Matrigel (Becton Dickinson) was added to pre-chilled 35 mm culture dishes and allowed to polymerize at 37° C. for 2 to 5 hours. […] For quantitative measurements of capillary tube formation, three random areas of Matrigel dishes were imaged and the length of continuous cords of three or more cells was measured.

cGMP = settings: local administration to rat brain slices; cited from earlier work
basilar artery = settings: rats; cited from earlier work
dog cerebral arteries = settings: cited from earlier work

CC(=O)N[C@H](C(=O)O)C(C)(C)SN=O (racemic) [SNAP, S-nitroso-N-acetylpenicillamine]
volume of cerebral infarction [1]: no significant difference | function measured with the rotarod [2]: significant improvement | function measured with the adhesive removal test [3]: significant improvement | Animal body weight [4]: significantly increased

Nc1nc2c(nc(Br)n2[C@@H]2O[C@@H]3COP(=O)(O)O[C@H]3[C@H]2O)c(=O)[nH]1 [8-BrcGMP, 8-Br-cGMP]
capillary-like tube formation ([5]; 8-BrcGMP 1 mM): significantly (p<0.05) increased

O=c1onc2cnc3ccccc3n12 [ODQ, 1H-[1,2,4]oxadiazolo[4,3-a]quinoxaline-1-one]
inhibition of DETANONOate-induced capillary-like tube formation ([5]; DETANONOate in the presence of ODQ): completely inhibited | inhibition of 8-BrcGMP-induced capillary-like tube formation ([5]; ODQ): did not significantly inhibit | inhibition of Sildenafil-induced capillary-like tube formation ([5]; ODQ 10 μM, Sildenafil 300 nM): significantly inhibited

CCCOc1ccccc1-c1nc2nn[nH]c2c(=O)[nH]1 [zaprinast]
cGMP release (cGMP): increase of cGMP release | dilatation of the basilar artery (basilar artery): elicits dilatation of the basilar artery | dilatation of cerebral arteries (dog cerebral arteries): produces dilatation of dog cerebral arteries
